According to paper PMC10762035, “Molecular basis of human trace amine-associated receptor 1 activation” (Nature Communications, 2024):
Substitutions are numbered along the chain they refer to. Where “and” joins values, the source holds several entries; their conditions need not be identical. Equal values may be shown once. Read-outs that look alike come from different tables or passages of the source.

Columns and labels:
Format in all cases: cell-based
[1] = molecular target: T1, hTA1 C178S (Homo sapiens, UniProt Q96RJ0, C178S); experiment: GloSensor cAMP accumulation assay, C178S mutant; details: for C178S - Normalized Luminescence Counts (N=2): log[Compound], single replicates
T1 construct: expressed in transfected cells; host or cells: HEK293T
T1 sequence (Q96RJ0 1-339 C178S): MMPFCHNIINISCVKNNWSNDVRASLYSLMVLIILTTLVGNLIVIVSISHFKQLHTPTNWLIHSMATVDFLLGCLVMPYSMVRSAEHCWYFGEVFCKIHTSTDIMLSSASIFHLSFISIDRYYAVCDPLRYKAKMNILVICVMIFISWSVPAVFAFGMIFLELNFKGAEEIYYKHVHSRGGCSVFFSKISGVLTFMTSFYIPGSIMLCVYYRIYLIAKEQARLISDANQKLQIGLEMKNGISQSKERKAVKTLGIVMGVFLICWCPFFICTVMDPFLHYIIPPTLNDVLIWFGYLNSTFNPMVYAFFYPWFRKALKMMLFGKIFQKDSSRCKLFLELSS

[2] = molecular target: T2, hTA1 S107C (Homo sapiens, UniProt Q96RJ0, S107C); experiment: GloSensor cAMP accumulation assay, S107C mutant;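 further: cells transiently co-expressing receptor and GloSensor biosensor, luminescence read after 30 min agonist exposure at room temperature, concentration-response fitted by nonlinear regression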
T2 construct: expressed in transfected cells; host or cells: HEK293T
T2 sequence (Q96RJ0 1-339 S107C): T1 sequence (Q96RJ0 1-339 C178S) with S107C, S178C

[3] = molecular target: T3, hTA1 T271A (Homo sapiens, UniProt Q96RJ0, T271A); experiment: GloSensor cAMP accumulation assay, T271A mutant
T3 construct: expressed in transfected cells; host or cells: HEK293T
T3 sequence (Q96RJ0 1-339 T271A): T1 sequence (Q96RJ0 1-339 C178S) with S178C, T271A

[4] = molecular target: T4, hTA1 C13S (Homo sapiens, UniProt Q96RJ0, C13S); experiment: GloSensor cAMP accumulation assay, C13S mutant; details: for C13S - Normalized Luminescence Counts (N=2): log[Compound], single wells
T4 construct: expressed in transfected cells; host or cells: HEK293T
T4 sequence (Q96RJ0 1-339 C13S): T1 sequence (Q96RJ0 1-339 C178S) with C13S, S178C

[5] = molecular target: T5, hTA1 I290N (Homo sapiens, UniProt Q96RJ0, I290N); experiment: GloSensor cAMP accumulation assay, I290N mutant;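 further: cells transiently co-expressing hTA1 and the GloSensor cAMP biosensor, luminescence read 30 min after compound addition at room temperature, efficacy scaled to the maximal β-PEA response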
T5 construct: expressed in transfected cells; host or cells: HEK293T
T5 sequence (Q96RJ0 1-339 I290N): T1 sequence (Q96RJ0 1-339 C178S) with S178C, I290N

## CCC(CC1COC(N)=N1)c1ccccc1 (stereo not shown) [Ro5256390]
[1]; C178S, each row one experiment (N=2), 3 replicates
  ΔpEC50 values (each mutant value - WT average), Mean: -0.5545 and -0.2923
[1]; C178S, relative to β-PEA
  Emax: 120%
[1]; C178S, β-PEA = 100, each row one experiment (N=2), 3 replicates
  Emax values, Mean: 104.356 and 134.792
[1]; EC50, C178S, n=2
  EC50: 14.1 nM
[1]; M = -5
  C178S - Normalized Luminescence Counts (N=2): 102.446 and 115.063 and 100.063 and 98.247 and 134.327 and 139.921
[1]; M = -5.522
  C178S - Normalized Luminescence Counts (N=2): 112.587 and 101.839 and 98.2408 and 148.866 and 141.178 and 145.097
[1]; M = -6
  C178S - Normalized Luminescence Counts (N=2): 99.8763 and 105.203 and 90.1566 and 163.316 and 171.125 and 157.632
[1]; M = -6.522
  C178S - Normalized Luminescence Counts (N=2): 110.577 and 98.2408 and 97.8202 and 140.041 and 136.93 and 126.219
[1]; M = -7
  C178S - Normalized Luminescence Counts (N=2): 89.6425 and 86.2313 and 90.5771 and 109.526 and 118.68 and 112.368
[1]; M = -7.522
  C178S - Normalized Luminescence Counts (N=2): 61.5581 and 68.0535 and 67.1189 and 100.042 and 97.9478 and 96.7511
[1]; M = -8
  C178S - Normalized Luminescence Counts (N=2): 35.9971 and 29.5951 and 33.2867 and 60.9705 and 68.8087 and 90.3489
[1]; M = -8.522
  C178S - Normalized Luminescence Counts (N=2): 17.2585 and 16.3239 and 17.6791 and 41.704 and 41.2253 and 41.0458
[1]; M = -9
  C178S - Normalized Luminescence Counts (N=2): 9.361 and 5.296 and 6.978 and 20.7921 and 25.9976 and 27.6132
[1]; M = -9.522
  C178S - Normalized Luminescence Counts (N=2): 1.184 and 0.9499 and 2.959 and 8.825 and 6.193 and 11.0392
[1]; M = -10
  C178S - Normalized Luminescence Counts (N=2): 1.651 and 2.539 and 1.885 and 5.9234 and 4.278 and 6.671
[1]; M = -10.522
  C178S - Normalized Luminescence Counts (N=2): 0.4359 and -0.07812 and -0.265 and 1.256 and 0.02978 and 1.197
[1]; M = -11
  C178S - Normalized Luminescence Counts (N=2): 0.9499 and 0.763 and 0.2957 and 5.146 and 2.064 and 5.0259
[1]; M = -11.522
  C178S - Normalized Luminescence Counts (N=2): -0.4987 and 1.2303 and -0.03139 and 3.65 and 2.333 and 2.932
[1]; M = -12
  C178S - Normalized Luminescence Counts (N=2): 0.2023 and 1.184 and 0.4359 and 4.098 and 3.021 and 6.312
[1]; M = -12.522
  C178S - Normalized Luminescence Counts (N=2): 0.2023 and -0.1249 and -0.03139 and 3.321 and 2.124 and 7.958
[1]; pEC50 values, Mean, C178S, each row one experiment (N=2), 3 replicates
  EC50: 19.1 nM and 10.5 nM
[1]; read-out: Span ± SEM (Emax normalized to β-PEA), C178S, n=2
  Emax: 120%
[2]; EC50, S107C, n=2
  EC50: 504 nM
[2]; S107C
  decrease in potency vs wild type: approximately 100 fold
[2]; S107C mutant minus WT average
  ΔEmax values (each mutant value - WT average): -34.2322
[2]; S107C mutant, β-PEA = 100, each line an independent experiment, 3 replicates
  Emax values, Mean: 69.072 and 124.486
[2]; read-out: Span ± SEM (Emax normalized to β-PEA), S107C, n=2
  Emax: 88.8 ± 19.8%
[3]; EC50, T271A, n=2
  EC50: 14.7 nM
[3]; T271A mutant, Figure 5B, β-PEA = 100, each row one independent experiment (3 replicates)
  Emax values, Mean: 98.9093
[3]; pEC50 values, Mean, T271A mutant, Figure 5B, each row one independent experiment (3 replicates)
  EC50: 8.67 nM and 24.8 nM
[3]; read-out: Emax values, Mean, T271A mutant, Figure 5B, β-PEA = 100, each row one independent experiment (3 replicates)
  Emax: 92.1%
[3]; read-out: Span ± SEM (Emax normalized to β-PEA), T271A, n=2
  Emax: 95.5 ± 3.42%
[4]; C13S
  ΔpEC50 values (each mutant value - WT average): -0.1093 and -0.3651
[4]; C13S, Mean of fit per experiment
  Emax values: 104.119
[4]; EC50, C13S, n=2
  EC50: 9.21 nM
[4]; M = -5
  C13S - Normalized Luminescence Counts (N=2): 108.406 and 95.388 and 120.776 and 112.887 and 109.603 and 114.083
[4]; M = -5.522
  C13S - Normalized Luminescence Counts (N=2): 112.25 and 104.067 and 102.43 and 107.496 and 95.9649 and 109.96
[4]; M = -6
  C13S - Normalized Luminescence Counts (N=2): 90.5159 and 87.1282 and 84.9205 and 101.909 and 92.8231 and 104.73
[4]; M = -6.522
  C13S - Normalized Luminescence Counts (N=2): 96.2254 and 77.4601 and 94.8551 and 102.052 and 85.8613 and 107.282
[4]; pEC50 values, Mean, hTA1 C13S, mean of 3 replicates, one line per independent experiment
  EC50: 6.86 nM and 12.4 nM
[4]; read-out: Emax values, C13S, Mean of fit per experiment
  Emax: 96.6%
[4]; read-out: Span ± SEM (Emax normalized to β-PEA), C13S, n=2
  Emax: 100 ± 3.73%
[5]; EC50, I290N, n=2
  EC50: 6.21 nM
[5]; hTA1 I290N (N=2), log[Compound], M = -5
  cAMP accumulation response, single replicate values (source data, Supplementary Figure 5): 109.556 and 109.922 and 109.294 and 105.343
[5]; hTA1 I290N mutant minus WT average
  ΔpEC50 values (each mutant value - WT average), Mean: -0.14 and 0.00774
[5]; hTA1 I290N mutant, β-PEA set to 100, each grid row a separate experiment, 3 replicates
  Emax values, Mean: 96.7119
[5]; pEC50 values (Mean), hTA1 I290N mutant, Figure 3B source data, each grid row a separate experiment, 3 replicates
  EC50: 7.37 nM and 5.24 nM
[5]; read-out: Emax values (Mean), hTA1 I290N mutant, β-PEA set to 100, each grid row a separate experiment, 3 replicates
  Emax: 101%
[5]; read-out: Span ± SEM (Emax normalized to β-PEA), I290N, n=2
  Emax: 99 ± 2.27%
